One series deals with PvNMT (Plasmodium vivax, UniProt A5K1A2). The series is described as follows: NMT activity assay (CPM detection of free CoA), PvNMT. The settings on record: for SI: enzyme selectivity, HsNMT IC50/PvNMT IC50.
A further series deals with T1, HsNMT1 (Homo sapiens, UniProt P30419).
T1 sequence (P30419 1-496): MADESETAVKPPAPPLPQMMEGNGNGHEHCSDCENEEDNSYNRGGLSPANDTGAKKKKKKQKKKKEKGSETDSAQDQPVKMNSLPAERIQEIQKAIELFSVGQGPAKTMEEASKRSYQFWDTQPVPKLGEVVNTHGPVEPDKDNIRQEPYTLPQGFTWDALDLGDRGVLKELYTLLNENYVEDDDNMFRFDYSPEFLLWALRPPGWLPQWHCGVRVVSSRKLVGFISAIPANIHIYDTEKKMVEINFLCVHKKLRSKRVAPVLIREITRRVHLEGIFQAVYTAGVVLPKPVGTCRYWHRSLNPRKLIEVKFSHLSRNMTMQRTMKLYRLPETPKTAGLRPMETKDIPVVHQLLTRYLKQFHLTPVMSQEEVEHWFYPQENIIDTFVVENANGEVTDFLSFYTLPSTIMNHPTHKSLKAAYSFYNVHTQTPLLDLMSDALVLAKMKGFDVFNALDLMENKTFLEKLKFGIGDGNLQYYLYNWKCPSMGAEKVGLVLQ
The series is described as follows: NMT activity assay (CPM detection of free CoA), HsNMT.

The next series concerns P. vivax schizonts. As to the kind of experiment: P. vivax liver stage assay, schizonts. The series is classed as cell-based, Plasmodium vivax. The note with it: 20 µM; for Number of liverstage Schizonts per well: 8 dpi, listed as Pi4K. Here is the method: We next evaluated the candidate compounds against liver-stage P. vivax (Fig. 5). P. vivax sporozoites were obtained from three independent patient isolates and cultured in primary human hepatocytes from a single donor lot using a 384-well microculture system as described previously. Cells were infected and treated with NMTis at 20 µM beginning day 5 post-infection until day 8 when the infection rates were quantified by fluorescent microscopy.
Accordingly, we applied dose–response curves of all the tested NMTs on parasite isolates 2 and 3 over concentrations up to 20 µM (Fig. 5c, d, Source Data file). We observed similar kinetics for all inhibitors, with a gradual decrease in parasite load upon increasing the drug concentration. […] Nuclei were counted in each well using DAPI staining as a measure of toxicity (Supplementary Fig. 86, Supplementary Source data). We used the phosphatidylinositol 4-kinase inhibitor (PI4Ki), MMV390048, as a positive control for eliminating schizonts[37],[38].
Plasmodium vivax liver stage assays were performed as described previously. Cryopreserved primary human hepatocytes (Cat No. F00995-P) and hepatocyte culture medium (HCM) (InVitroGroTM CP Medium) were obtained from Bioreclamation IVT, Inc., (Baltimore, MD, USA). Briefly, we seeded 384-well plates with primary hepatocytes from a single donor lot at a density of 25,000 cells per well. We then infected the hepatocytes with 14,000 freshly hand-dissected sporozoites per well. Cells were exposed to the compounds at indicated concentrations from day 5 post-infection. We used Pi4K inhibitor MMV390048, at 20 µM, as a positive control to eliminate P. vivax liver schizonts. We then proceeded to feed cultures every day, replacing the compounds until day 8 post-infection. Cells were fixed with 4% PFA, permeabilized with 1% Triton X-100, blocked with 2% BSA, and stained with DAPI and PvUIS4 antibodies to detect schizonts and hypnozoites forms by confocal microscopy. For antibody dilutions, PvUIS4 (kind gift from Dr. Noah Sather, Seattle Children’s Research Institute) was diluted 1:250 and the secondary antibody was anti-mouse AlexaFluor-594 (Cat # A-11005; RRID: AB_2534073) diluted 1:1000. DAPI was diluted 1:2000. The images were processed, analyzed and outlier cells were removed using IMARIS (Bitplane Inc.) image analysis software.

The next series has as its system HepG2 cells. As to the kind of experiment: HepG2 cytotoxicity assay (Live/Dead staining). The settings on record: for Percentage of live HepG2 cells compared with diluent controls: replicates. The method, then: Therefore, we assessed cytotoxicity in the human hepatoma HepG2 cell line. We required a PvNMT to HsNMT SI > 20 for further screening. HepG2 cells were exposed to the compounds at concentrations ranging from 1 to 20 µM for […], and toxicity was assessed via live-dead staining.
The viability of the HepG2 cell line following exposure to the compounds was determined by a Live/Dead cell assay kit (Invitrogen). Briefly, cells were added to a 96-well plate at a concentration of 5000 cells per well, excluding the exterior wells. Cells were exposed to the compounds at different concentrations ranging from 1 to 20 µM. Cells were washed every 24 h and supplemented with fresh doses of compounds. At 72 h post-treatment, 1 µM calcein-AM and 1 µM ethidium homodimer were added to the wells and incubated for 10 min at 37 °C. After washing with PBS, the cells were visualized with fluorescent microscopy (Keyence BZ-X700).

Setting [1] is: PvNMT IC50, mean of two or more determinations.
Setting [2] is: read-out: PvNMT IC50, mean of two or more determinations.
[3] abbreviates: read-out: HsNMT IC50, mean of two or more determinations.

Structures are written as SMILES. Where “and” joins values, the source holds several entries; their conditions need not be identical. Equal values may be shown once. Read-outs that look alike come from different tables or passages of the source. Some results are limits rather than exact numbers.

PvNMT, sequence (A5K1A2 entry or part of it): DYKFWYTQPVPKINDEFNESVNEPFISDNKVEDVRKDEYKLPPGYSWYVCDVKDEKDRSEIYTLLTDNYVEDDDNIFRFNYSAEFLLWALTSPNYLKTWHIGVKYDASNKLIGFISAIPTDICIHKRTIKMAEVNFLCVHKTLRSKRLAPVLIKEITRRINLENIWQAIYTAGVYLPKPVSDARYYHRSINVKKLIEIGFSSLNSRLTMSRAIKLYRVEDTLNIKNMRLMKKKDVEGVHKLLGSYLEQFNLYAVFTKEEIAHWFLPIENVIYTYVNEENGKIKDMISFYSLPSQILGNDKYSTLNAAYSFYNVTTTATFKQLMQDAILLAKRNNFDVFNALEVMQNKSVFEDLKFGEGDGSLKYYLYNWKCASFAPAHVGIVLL

One may read the IC50 as the point on the concentration scale where inhibition reaches its midpoint. Regarding `Cc1n[nH]c(C)c1CCOc1cccnc1-c1cccc(N2CCNCC2)c1` [Compound 12m], at PvNMT (setting [1]), the IC50 was 12.5 µM. Same read-out and setting: in the case of `Cc1n[nH]c(C)c1CCOc1ccccc1-c1cc(N2CCNCC2)ncn1` [Compound 16f] it was 14 µM; in that of `CN(C)CCOc1cccc(-c2c(OCCc3cccnc3)ccc3ccccc23)c1` [Compound 30d], 7.21 µM. In the case of `Cc1n[nH]c(C)c1CCOc1cc(F)ccc1-c1cccc(N2CCNCC2)c1` [Compound 12p], the IC50 against PvNMT (setting [1]) is 0.368 µM; at HsNMT1 it was 23.1 µM. Also, on PvNMT, the SI turned out to be 62.7.

For `Cc1n[nH]c(C)c1CCOc1ccccc1-c1ccnc(N2CCNCC2)c1` [Compound 12n], the results for the IC50 on PvNMT (setting [1]) and at HsNMT1 were 0.604 µM and 39.7 µM, respectively. Besides, at PvNMT, the SI worked out at 65.7.

`Cc1nn(C)c(C)c1CCOc1ccc2ccccc2c1-c1cccc(OCCN(C)C)c1` [Compound 30b] came in with an IC50 at PvNMT (setting [1]) of 19.8 µM. Still for that read-out and setting: to `CN(C)CCOc1cccc(-c2ncccc2OCCc2cccnc2)c1` [Compound 26d] belongs 14.8 µM; to `c1cncc(CCOc2ccccc2-c2cccc(N3CCNCC3)c2)c1` [Compound 12i], 1.54 µM. `CS(=O)(=O)c1ccc(-c2cnc(N)c(-c3ccc(C(F)(F)F)nc3)c2)cc1` [MMV390048, reference compound]: the “Number of liverstage Schizonts per well” value in the series with P. vivax schizonts (isolate 2, technical replicates (Fig. 5b)) is 0 per well and 1 per well (2×); in the series with P. vivax schizonts (isolate 3, technical replicates (Fig. 5b)) it was 2 per well and 1 per well. In the series on P. vivax schizonts (positive control), the “number of schizonts per well (in words)” value is recorded as “dramatically reduced the number of schizonts per well”. At PvNMT (setting [1]), `Cc1n[nH]c(C)c1CCOc1ccccc1-c1cccc(OCCN(C)C)c1` [Compound 26h] came in with an IC50 of 1.56 µM. On to `Cc1n[nH]c(C)c1CCOc1cccnc1-c1cccc(OCCN(C)C)c1` [Compound 26g], for which the IC50 on PvNMT (setting [1]) turned out to be 19.4 µM. The compound `Cc1nn(C)c(C)c1CCOc1cccnc1-c1cccc(OCCN(C)C)c1` [Compound 26a] returned an IC50 at PvNMT (setting [1]) of 0.266 µM. On the same count and under the same terms, to `Fc1ccc(-c2cccc(N3CCNCC3)c2)c(OCCc2cccnc2)c1` [Compound 12k] belongs 3.12 µM. The same measure, in the same setting: to `Fc1ccc(-c2cc(N3CCNCC3)ncn2)c(OCCc2cccnc2)c1` [Compound 16d] belongs 3.39 µM; to `CN(C)CCOc1cccc(-c2ccccc2OCCc2cccnc2)c1` [Compound 26e], 12.8 µM. As for `Cc1n[nH]c(C)c1CCOc1cc(F)ccc1-c1cc(N2CCNCC2)ncn1` [Compound 16e], the IC50 at PvNMT (setting [2]) was 5.07 µM. Take `CN[C@@H]1C[C@H]2O[C@@](C)([C@@H]1OC)n1c3ccccc3c3c4c(c5c6ccccc6n2c5c31)C(=O)NC4` [staurosporine, Staurosporine, reference compound]: the “Percentage of live HepG2 cells compared with diluent controls” value is 95.8547% and 101.587% in the series with HepG2 cells (1 μM); 98.2188% and 92.7655% in the series with HepG2 cells (2.5 μM); 90.1576% and 84.8522% in the series with HepG2 cells (5 μM); 76.1985% and 71.2598% in the series on HepG2 cells (10 μM); 50.831% and 59.1843% with HepG2 cells (20 μM). For the same compound, the “HepG2 cell viability (in words)” value with HepG2 cells (at 10–20 µM, positive control) is listed as “reduced the cell viability”. As for `Cc1n[nH]c(C)c1CCOc1ccc2ccccc2c1-c1cccc(OCCN(C)C)c1` [Compound 30f], the IC50 at PvNMT (setting [1]) came to 25.4 µM. Regarding `Cc1nn(C)c(C)c1CCOc1cc(F)ccc1-c1cc(N2CCNCC2)ncn1` [Compound 16b], the SI at PvNMT was 164 and 164.4. Also, the IC50 at PvNMT (setting [2]) is 0.168 µM; on HsNMT1 (setting [3]), 27.6 µM.

Turning to `c1cncc(CCOc2cccnc2-c2ccnc(N3CCNCC3)c2)c1` [Compound 12h], the IC50 at PvNMT (setting [1]) was determined as 0.441 µM. For `Cc1n[nH]c(C)c1CCOc1cccnc1-c1ccnc(N2CCNCC2)c1` [Compound 12o], the IC50 at PvNMT (setting [2]) came to 3.12 µM. As for `Cc1nn(C)c(C)c1CCOc1ccccc1-c1cc(N2CCNCC2)ncn1` [Compound 16a], on PvNMT (setting [1]), the IC50 worked out at 9.39 µM. Regarding `CN(C)CCOc1cccc(-c2ccc(F)cc2OCCc2cccnc2)c1` [Compound 26f], the values for the IC50 on PvNMT (setting [2]) and on HsNMT1 (setting [3]) were 0.622 µM and > 40 µM, respectively. In turn, `Cc1n[nH]c(C)c1CCOc1ccc2ccccc2c1-c1ccnc(N2CCNCC2)c1` [Compound 30e] displayed an IC50 against PvNMT (setting [1]) of 2.88 µM. `Cc1nn(C)c(C)c1CCOc1ccccc1-c1ccnc(N2CCNCC2)c1` [Compound 12c]: the IC50 on PvNMT (setting [1]) came out at 0.00948 µM; against HsNMT1, 0.599 µM. On PvNMT, this compound registered an SI of 63.1.

The values are drawn from paper PMC10480161, “Identification of potent and selective N-myristoyltransferase inhibitors of Plasmodium vivax liver stage hypnozoites and schizonts” (Nature Communications, 2023).
